Assay results taken from the supplement of paper PMC10883282.

Tests used:
Experiment in all cases: standardised AUC of viability dose-response curve (72 h) (fraction (0-1)); higher = less growth inhibition (more resistant)
SYO-1 = system: SYO-1
Method in brief: (§1)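 Sarcoma cell lines in 384-well plates were treated in triplicate for 72 h with 2.5 µl of a compound dilution series, made in 1:3 steps from 10 mM to 0.0002 mM on the compound plate. ATPLite viability was scaled from 1 (full) to 0 (none) and fitted per drug and cell line with a four-parameter log-logistic model. The values are standardised areas under the dose-response curve in log-dose space, from a modified drexplorer computeAUC. On that scale, 1 means no response and 0 means full response.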

KHOS-240S = system: KHOS-240S
Method in brief: as §1

RD-ES = system: RD-ES
Method in brief: as §1

SW872 = system: SW872
Method in brief: as §1

G401 = system: G401
Method in brief: as §1

SW982 = system: SW982
Method in brief: as §1

HS729 = system: HS729
Method in brief: as §1

SW684 = system: SW684
Method in brief: as §1

SK-LMS-1 = system: SK-LMS-1
Method in brief: as §1

SK-ES-1 = system: SK-ES-1
Method in brief: as §1

MES-SA = system: MES-SA
Method in brief: as §1

KHOS-NP = system: KHOS-NP
Method in brief: as §1

VA-ES-BJ = system: VA-ES-BJ
Method in brief: as §1

SW1353 = system: SW1353
Method in brief: as §1

A204 = system: A204
Method in brief: as §1

HT1080 = system: HT1080
Method in brief: as §1

RD = system: RD
Method in brief: as §1

SMILES	standardised AUC (SYO-1)	standardised AUC (KHOS-240S)	standardised AUC (RD-ES)	standardised AUC (SW872)	standardised AUC (G401)	standardised AUC (SW982)	standardised AUC (HS729)	standardised AUC (SW684)	standardised AUC (SK-LMS-1)	standardised AUC (SK-ES-1)	standardised AUC (MES-SA)	standardised AUC (KHOS-NP)	standardised AUC (VA-ES-BJ)	standardised AUC (SW1353)	standardised AUC (A204)	standardised AUC (HT1080)	standardised AUC (RD)
O=C1NC(=O)[C@@H](c2cn3c4c(cccc24)CCC3)[C@@H]1c1c[nH]c2ccccc12 [TIVANTINIB]	0.804	0.782	0.768	0.859	0.865	0.792	0.896	0.883	0.79	0.718	0.754	0.867	0.829	0.879	0.844	0.796	0.789
COc1cc(Nc2ncc(F)c(Nc3ccc4c(n3)N(COP(=O)(O)O)C(=O)C(C)(C)O4)n2)cc(OC)c1OC [FOSTAMATINIB]	0.779	0.798	0.857	0.803	0.842	0.755	0.871	0.886	0.854	0.757	0.885	0.911	0.845	0.819	0.774	0.968	0.906
CNC(=O)c1ccccc1Sc1ccc2c(/C=C/c3ccccn3)n[nH]c2c1 [AXITINIB]	0.669	0.849	0.926	0.859	0.857	0.887	0.826	0.954	0.975	0.863	0.857	0.93	0.901	0.928	0.545	0.963	0.89
Cc1cccc(-c2nn3c(c2-c2ccnc4ccc(C(N)=O)cc24)CCC3)n1 [GALUNISERTIB]	0.853	0.955	0.972	0.962	0.993	0.992	0.91	0.992	0.974	0.968	0.969	0.956	1	0.976	0.976	0.982	0.998
CCc1cnn2c(NCc3ccc[n+]([O-])c3)cc(N3CCCC[C@H]3CCO)nc12 [DINACICLIB]	0.519	0.51	0.419	0.6	0.439	0.546	0.64	0.798	0.598	0.378	0.398	0.509	0.498	0.551	0.497	0.525	0.484
COCCNc1cc(NC(=O)N2CCCc3cc(CN4CCN(C)CC4=O)c(C=O)nc32)ncc1C#N [ROBLITINIB]	0.959	0.983	0.978	1	0.979	0.997	0.971	0.994	0.988	0.976	0.975	0.994	0.994	0.995	0.963	0.996	0.992
CCN1C(=O)N(c2c(F)c(OC)cc(OC)c2F)Cc2cnc3[nH]c(CN4CCOCC4)cc3c21 [PEMIGATINIB]	0.804	0.88	0.942	0.946	0.696	0.889	0.748	0.951	0.924	0.839	0.822	0.991	0.951	0.861	0.685	0.97	0.938
Cc1ccc(Nc2nccc(N(C)c3ccc4c(C)n(C)nc4c3)n2)cc1S(N)(=O)=O [PAZOPANIB]	0.78	0.951	0.988	0.984	0.914	0.987	0.91	0.99	0.974	0.966	0.964	0.978	1	0.98	0.699	0.999	0.997
CC#CC(=O)N1CCC[C@H]1c1nc(-c2ccc(C(=O)Nc3ccccn3)cc2)c2c(N)nccn12 [ACALABRUTINIB]	0.989	0.986	0.998	0.992	0.992	0.98	0.995	0.996	0.996	0.993	0.996	1	1	0.963	0.985	0.998	0.976
CCC(=O)N1CC[C@H](Nc2ncnc3c2CN(c2cnc(OC)c(C(F)(F)F)c2)CC3)C1 [LENIOLISIB]	0.923	0.962	0.95	0.947	0.929	0.955	0.935	0.83	0.927	0.96	0.955	0.97	0.955	0.934	0.929	0.961	0.988
C[C@H](Nc1ncnc2nc[nH]c12)c1cc2cccc(Cl)c2c(=O)n1-c1ccccc1 [DUVELISIB]	0.921	0.946	0.915	0.869	0.912	0.915	0.902	0.666	0.834	0.917	0.901	0.985	0.884	0.879	0.864	0.996	0.941
Cc1cc2c(F)c(Oc3ncnn4cc(OC[C@@H](C)O)c(C)c34)ccc2[nH]1 [BRIVANIB]	0.955	0.996	0.996	1	0.994	0.995	0.989	1	0.985	0.987	0.985	0.995	1	0.999	0.973	0.996	0.991
N#CCNC(=O)c1ccc(-c2ccnc(Nc3ccc(N4CCOCC4)cc3)n2)cc1 [MOMELOTINIB]	0.839	0.91	0.944	0.898	0.889	0.861	0.922	0.907	0.941	0.815	0.863	0.979	0.964	0.893	0.829	1	0.994
CCN(CC)CCNC(=O)c1c(C)[nH]c(/C=C2\C(=O)Nc3ccc(F)cc32)c1C [SUNITINIB]	0.648	0.815	0.755	0.813	0.907	0.754	0.804	0.876	0.908	0.716	0.829	0.88	0.881	0.855	0.558	0.864	0.836
